Among the data in patent US20260125359A1, “HETEROARYL COMPOUNDS AS MULTI-TARGET PROTEIN KINASE INHIBITORS” (FUJIAN HAIXI PHARMACEUTICALS CO., LTD., priority 2023, published 2026) are IC50 values, retold here.

A value given as a limit tells only on which side of the number the result lay.

For this assay, the system named is M-NFS-60 cells. Nature of the assay: M-NFS-60 cell in vitro assay (CCK, 48 h, M-CSF factor medium). The following applies: M-NFS-60 cells; read-out: M-NFS-60cellassay IC50. It is filed as cell-based. The procedure, abridged: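 Mouse M-NFS-60 cells (2000/well) in RPMI-1640 with 10% serum and M-CSF (25 ng/ml) were pre-incubated 4 h, then exposed to DMSO-diluted compound gradients for 48 h at 5% CO2. Viability read by CCK, 2 h, OD 450 nm; IC50 from curve fitting.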
Turning to `Cn1ncc2ncc(O[C@H]3CCc4c(NC(=O)c5cccc(C6CC6)c5)ccc(F)c43)cc21` [Compound 78a], the half-maximal inhibitory concentration (IC50) was < 50 nM.
The same measure for `Cc1ccc(NC(=O)c2cccc(C3CC3)c2)c2c1[C@@H](Oc1cnc3cnn(C)c3c1)CC2` [Compound 78b]: > 500 nM.
With `Cc1cccc(NC(=O)c2cccc3c2CC[C@@H]3N(C)c2cnc3cnn(C)c3c2)c1F` [Compound 79, (S)—N-(2-fluoro-3-methylphenyl)-1-(methyl (1-methyl-1H-pyrazolo[4,3-b]pyridin-6-yl)amino)-2,3-dihydro-1H-indene-4-carboxamide], the half-maximal inhibitory concentration (IC50) was < 50 nM.
Next, `CN(c1cnc2cnn(C)c2c1)[C@H]1CCc2c(C(=O)Nc3cccc(C4CC4)c3)cccc21` [Compound 80a]: < 50 nM; `CN(c1cnc2cn(C)nc2c1)[C@H]1CCc2c(C(=O)Nc3cccc(C4CC4)c3)cccc21` [Compound 80b]: < 50 nM.
Next, `CN(C)Cc1ccc(NC(=O)c2cccc3c2CC[C@@H]3N(C)c2cnc3cnn(C)c3c2)cc1F` [Compound 80c]: 50 to 200 nM; `COc1cc(NC(=O)c2cccc3c2CC[C@@H]3N(C)c2cnc3cnn(C)c3c2)ccc1F` [Compound 80d]: < 50 nM.
Next, `CN(c1cnc2cnn(C)c2c1)[C@H]1CCc2c(C(=O)Nc3cncc(Cl)c3)cccc21` [Compound 80e, (S)—N-(5-chloropyridin-3-yl)-1-(methyl (1-methyl-1H-pyrazolo[4,3-b]pyridin-6-yl)amino)-2,3-dihydro-1H-indene-4-carboxamide]: < 50 nM; `CN(C)Cc1cc(NC(=O)c2cccc3c2CC[C@@H]3N(C)c2cnc3cnn(C)c3c2)ccc1F` [Compound 80f]: 50 to 200 nM.
As to `CN(C)Cc1ccc(NC(=O)c2cccc3c2CC[C@@H]3N(C)c2cnc3cnn(C)c3c2)cc1` [Compound 80g], the half-inhibitory concentration (IC50) was in the range of 200 to 500 nM.
Next, `CN(c1cnc2cnn(C)c2c1)[C@H]1CCc2c(C(=O)Nc3nn(C)c4ccccc34)cccc21` [Compound 80h]: < 50 nM; `CN(c1cnc2cnn(C)c2c1)[C@H]1CCc2c(C(=O)Nc3ccc4c(c3)OC(F)(F)O4)cccc21` [Compound 80i]: 50 to 200 nM.
With `Cc1cccc(NC(=O)c2cccc3c2CC[C@@H]3N(C)c2cnc3cn(C)nc3c2)c1F` [Compound 80j], the 50% inhibitory concentration (IC50) was < 50 nM.
As to `COc1cccc(NC(=O)c2cccc3c2CC[C@@H]3N(C)c2cnc3cn(C)nc3c2)c1F` [Compound 80m], the half-maximal inhibitory concentration (IC50) was < 50 nM.
Next, `Cc1ccc(F)c(NC(=O)c2cccc3c2CC[C@@H]3N(C)c2cnc3cn(C)nc3c2)c1` [Compound 80n]: < 50 nM.
Take `CN1CCc2nc(NC(=O)c3cccc4c3CC[C@@H]4N(C)c3cnc4cn(C)nc4c3)sc2C1` [Compound 80o]: the half-inhibitory concentration (IC50) was < 50 nM.
Next, `COc1ccc(F)c(NC(=O)c2cccc3c2CC[C@@H]3N(C)c2cnc3cn(C)nc3c2)c1` [Compound 80p]: < 50 nM; `Cc1cc(NC(=O)c2cccc3c2CC[C@@H]3N(C)c2cnc3cnn(C)c3c2)ccc1F` [Compound 80q]: < 50 nM.
Next, `CN(c1cnc2cnn(C)c2c1)[C@H]1CCc2c(C(=O)Nc3ccc(F)c(Cl)c3)cccc21` [Compound 80r]: < 50 nM; `Cc1cc(NC(=O)c2cccc3c2CC[C@@H]3N(C)c2cnc3cn(C)nc3c2)ccc1F` [Compound 80s]: < 50 nM; `CN(c1cnc2cn(C)nc2c1)[C@H]1CCc2c(C(=O)Nc3ccc(F)c(Cl)c3)cccc21` [Compound 80t]: < 50 nM.
Regarding `CN(c1cnc2cn(C)nc2c1)[C@H]1CCc2c(C(=O)Nc3ccc4c(c3)OC(F)(F)O4)cccc21` [Compound 80u], the IC50 was < 50 nM.
Next, `COc1cc(NC(=O)c2cccc3c2CC[C@@H]3N(C)c2cnc3cn(C)nc3c2)ccc1F` [Compound 80v]: < 50 nM.
Next, `CN1CCc2nc(NC(=O)c3cccc4c3CC[C@@H]4N(C)c3cnc4cnn(C)c4c3)sc2C1` [Compound 80w]: 50 to 200 nM; `COc1cccc(NC(=O)c2cccc3c2CC[C@@H]3N(C)c2cnc3cnn(C)c3c2)c1F` [Compound 80x]: 50 to 200 nM; `Cc1ccc(F)c(NC(=O)c2cccc3c2CC[C@@H]3N(C)c2cnc3cnn(C)c3c2)c1` [Compound 80y]: < 50 nM.
Consider `Cn1cc2ncc(N[C@H]3CCc4c(NC(=O)c5cccc(C6CC6)c5)cccc43)cc2n1` [Compound 81, (S)-3-cyclopropyl-N-(1-((2-methyl-2H-pyrazolo[4,3-b]pyridin-6-yl)amino)-2,3-dihydro-1H-inden-4-yl)benzamide], for which the 50% inhibitory concentration (IC50) is < 50 nM.
Next, `Cc1cccc(C(=O)Nc2cccc3c2CC[C@@H]3Nc2cnc3cn(C)nc3c2)c1F` [Compound 82, (S)-2-fluoro-3-methyl-N-(1-((2-methyl-2H-pyrazolo[4,3-b]pyridin-6-yl)amino)-2,3-dihydro-1H-inden-4-yl)benzamide]: < 50 nM.
The same measure for `Cc1cccc(C(=O)Nc2ccc(F)c3c2CC[C@@H]3Nc2cnc3cn(C)nc3c2)c1F` [Compound 83, (S)-2-fluoro-N-(7-fluoro-1-((2-methyl-2H-pyrazolo[4,3-b]pyridin-6-yl)amino)-2,3-dihydro-1H-inden-4-yl)-3-methylbenzamide]: < 50 nM.
The same measure for `Cc1cccc(NC(=O)c2ccc(F)c3c2CC[C@@H]3Nc2cnc3cn(C)nc3c2)c1F` [Compound 84, (S)-7-fluoro-N-(2-fluoro-3-methylphenyl)-1-((2-methyl-2H-pyrazolo[4,3-b]pyridin-6-yl)amino)-2,3-dihydro-1H-indene-4-carboxamide]: < 50 nM; for `Cn1ncc2ncc(O[C@H]3CCc4c(C(=O)Nc5cccc(C6CC6)c5)ccc(F)c43)cc21` [Compound 85, (S)—N-(3-cyclopropylphenyl)-7-fluoro-1-((1-methyl-1H-pyrazolo[4,3-b]pyridin-6-yl)oxy)-2,3-dihydro-1H-indene-4-carboxamide]: < 50 nM.
On to `Cn1ncc2ncc(N[C@H]3CCc4c(Nc5cc(C(C)(C)C(F)(F)F)on5)cccc43)nc21` [Compound 87, (S)—N′-(1-methyl-1H-pyrazolo[3,4-b]pyrazin-6-yl)-N^4-(5-(1,1,1-trifluoro-2-methylpropan-2-yl)isoxazol-3-yl)-2,3-dihydro-1H-indene-1,4-diamine], for which the half-inhibitory concentration (IC50) is < 50 nM.
Next, `Cn1ncc2ncc(N[C@H]3CCc4c(C(=O)Nc5cccc(C6CC6)c5)cccc43)nc21` [Compound 88, (S)—N-(3-cyclopropylphenyl)-1-((1-methyl-1H-pyrazolo[3,4-b]pyrazin-6-yl)amino)-2,3-dihydro-1H-indene-4-carboxamide]: < 50 nM; `Cn1cc2ncc(N[C@H]3CCc4c(Nc5cc(C(C)(C)C)on5)cccc43)cc2n1` [Compound 90, (S)—N^4-(5-(tert-butyl)isoxazol-3-yl)-N^1-(2-methyl-2H-pyrazolo[4,3-b]pyridin-6-yl)-2,3-dihydro-1H-indene-1,4-diamine]: < 50 nM.
Regarding `Cn1ncc2ncc(N[C@H]3CCc4c(Nc5cc(C(C)(C)C)on5)cccc43)cc21` [Compound 91a], the IC50 was < 50 nM.
Turning to `Cn1ncc2ncc(N[C@H]3CCc4c(Nc5nc(C(C)(C)C)cs5)cccc43)cc21` [Compound 91b], the IC50 lay within 50 to 200 nM.
In the case of `COCC(C)(C)c1cc(Nc2cccc3c2CC[C@@H]3Nc2cnc3cnn(C)c3c2)no1` [Compound 91c], the half-inhibitory concentration (IC50) was < 50 nM.
The same measure for `Cn1ncc2ncc(N[C@H]3CCc4c(Nc5cc(C(C)(C)CO)on5)cccc43)cc21` [Compound 91d]: < 50 nM.
For `CC(C)c1cc(Nc2cccc3c2CC[C@@H]3Nc2cnc3cnn(C)c3c2)no1` [Compound 91e], the half-inhibitory concentration (IC50) is < 50 nM.
The same measure for `Cn1ncc2ncc(N[C@H]3CCc4c(Nc5ncc(C(C)(C)C)s5)cccc43)cc21` [Compound 91f]: < 50 nM; for `Cn1ncc2ncc(N[C@H]3CCc4c(Nc5nc(C(C)(C)C)co5)cccc43)cc21` [Compound 91g]: 50 to 200 nM.
The same measure for `Cn1cc2ncc(N[C@H]3CCc4c(Nc5ncc(C(C)(C)C)s5)cccc43)cc2n1` [Compound 91h]: < 50 nM.
Next, `Cn1cc2ncc(N[C@H]3CCc4c(Nc5nc(C(C)(C)C)cs5)cccc43)cc2n1` [Compound 91i]: < 50 nM.
Turning to `Cn1cc2ncc(N[C@H]3CCc4c(Nc5cc(C(C)(C)C(F)(F)F)on5)cccc43)cc2n1` [Compound 91j], the IC50 is < 50 nM.
Next, `Cn1cc2ncc(N[C@H]3CCc4c(Nc5cc(C6(C)CCC6)on5)cccc43)cc2n1` [Compound 91k]: < 50 nM.
Next, `Cn1cc2ncc(N[C@H]3CCc4c(Nc5cc(C6(C)CCCC6)on5)cccc43)cc2n1` [Compound 91l]: < 50 nM; `Cn1cc2ncc(N[C@H]3CCc4c(Nc5cc(C6(C(F)(F)F)CC6)on5)cccc43)cc2n1` [Compound 91m]: < 50 nM; `Cn1cc2ncc(N[C@H]3CCc4c(Nc5cc(C6(C(F)(F)F)CCC6)on5)cccc43)cc2n1` [Compound 91n]: < 50 nM.
Next, `Cn1cc2ncc(N[C@H]3CCc4c(Nc5cc(C6(C(F)(F)F)CCCC6)on5)cccc43)cc2n1` [Compound 91o]: < 50 nM.
As to `Cn1cc2ncc(N[C@H]3CCc4c(Nc5cc(C67CC(C6)C7)on5)cccc43)cc2n1` [Compound 91r], the IC50 was < 50 nM.
Next, `Cn1cc2ncc(N[C@H]3CCc4c(Nc5cc(C67CC(F)(C6)C7)on5)cccc43)cc2n1` [Compound 91s]: < 50 nM.
Consider `Cn1cc2ncc(N[C@H]3CCc4c(Nc5noc(C6(C)COC6)n5)cccc43)cc2n1` [Compound 92, (S)—N^1-(2-methyl-2H-pyrazolo[4,3-b]pyridin-6-yl)-N^4-(5-(3-methyloxetan-3-7)-1,2,4-oxadiazol-3-yl)-2,3-dihydro-1H-indene-1,4-d], for which the half-inhibitory concentration (IC50) is > 500 nM.
Next, `Cn1ncc2ncc(N[C@H]3CCc4c(Nc5noc(C(C)(C)C)n5)cccc43)cc21` [Compound 93a]: < 50 nM; `CN1CCC[C@@H]1c1nc(Nc2cccc3c2CC[C@@H]3Nc2cnc3cn(C)nc3c2)no1` [Compound 93b]: 50 to 200 nM.
